Measured values as given in US8735321B2, “Process for the production of particles comprising active agrochemical ingredients in amorphous form” (priority 2008, dated 2014).

Assay: crystal formation of active ingredient mixtures from acetone after one week storage at 20° C.
Assay type: physicochemical
Conditions: stored one week at 20° C.
Protocol: The active ingredients were dissolved in acetone (see Table 1) and combined to give the mixing ratios (Table 2). The acetone was evaporated for two days at room temperature and then stripped off in vacuum for 5 h at 80° C. (method A). Temperature-insensitive active ingredients Were subsequently melted for an additional 15 h at 140° C. (method B). The samples were cooled to 20° C. in each case and stored for one week at 20° C.

[1] = method B (as A, then melted 15 h at 140° C.)

| SMILES | Crystal formation [1] | Crystal formation (method A (acetone evaporated, vacuum 5 h at 80° C.)) |
| --- | --- | --- |
| O=C(Nc1ccccc1-c1ccc(Cl)cc1)c1cccnc1Cl [Boscalid] | Yes |  |
| CC1(C)CCC(=Cc2ccc(Cl)cc2)C1(O)Cn1cncn1 (centres unmarked) [Triticonazole] | Yes |  |
| Fc1ccc([C@]2(Cn3cncn3)O[C@H]2c2ccccc2Cl)cc1 (racemic) [Epoxiconazole] | Yes |  |
| COCC(=O)N(c1c(C)cccc1C)C(C)C(=O)OC (centres unmarked) [Metalaxyl] |  | Yes |
| Cn1cc(C(=O)Nc2ccccc2-c2cc(F)c(F)c(F)c2)c(C(F)F)n1 [Fungicide A, N-(3′,4′,5′-trifluorobiphenyl-2-yl)-3-difluoromethyl-1-methyl-1H-pyrazole-4-carboxamide] | Yes |  |
